# Experimental data reported in patent US10654814B2, “Bicyclic hydroxamic acids useful as inhibitors of mammalian histone deacetylase activity” (KANCERA AB, priority 2015, dated 2020).
# Counter-ions that a name gives are not always drawn.
# Target: HDAC6 (Homo sapiens (Human), UniProt Q9UBN7)
# Assay: HDAC6 in vitro enzymatic assay (fluorescence)
# Type: biochemical
# Conditions: Table 3; read-out: IC50 (nM) for inhibition of HDAC6
# Experimental: Biological Tests Method for Measurement of Enzymatic Activity of HDACs Materials & Methods
# All Examples were tested in HDAC1,2,3,6 and 8 in vitro enzymatic assays. The assay principle is well known (Hauser et al. 2009, Bradner et al. 2010) and all necessary reagents like enzymes, substrates, developer and reference compounds are commercially available (see e.g. BPS Biosciences http://www.bpsbioscience.com/). Stock solutions (10 mM in DMSO) of compounds were serially diluted 1:3 in 11 concentrations with a top concentration of 200 μM for HDAC1,2,3 and 2 μM for HDAC6 and HDAC8. The enzymatic reactions were conducted in a mixture containing assay buffer, bovine serum albumin, HDAC substrate, and a test compound. After enzymatic reaction, developer was added and after an additional incubation time, fluorescence intensity was measured at an excitation wavelength of 360 nm and an emission wavelength of 460 nm. All experiments were performed in duplicate.
# Sequence of HDAC6 (Q9UBN7 whole entry): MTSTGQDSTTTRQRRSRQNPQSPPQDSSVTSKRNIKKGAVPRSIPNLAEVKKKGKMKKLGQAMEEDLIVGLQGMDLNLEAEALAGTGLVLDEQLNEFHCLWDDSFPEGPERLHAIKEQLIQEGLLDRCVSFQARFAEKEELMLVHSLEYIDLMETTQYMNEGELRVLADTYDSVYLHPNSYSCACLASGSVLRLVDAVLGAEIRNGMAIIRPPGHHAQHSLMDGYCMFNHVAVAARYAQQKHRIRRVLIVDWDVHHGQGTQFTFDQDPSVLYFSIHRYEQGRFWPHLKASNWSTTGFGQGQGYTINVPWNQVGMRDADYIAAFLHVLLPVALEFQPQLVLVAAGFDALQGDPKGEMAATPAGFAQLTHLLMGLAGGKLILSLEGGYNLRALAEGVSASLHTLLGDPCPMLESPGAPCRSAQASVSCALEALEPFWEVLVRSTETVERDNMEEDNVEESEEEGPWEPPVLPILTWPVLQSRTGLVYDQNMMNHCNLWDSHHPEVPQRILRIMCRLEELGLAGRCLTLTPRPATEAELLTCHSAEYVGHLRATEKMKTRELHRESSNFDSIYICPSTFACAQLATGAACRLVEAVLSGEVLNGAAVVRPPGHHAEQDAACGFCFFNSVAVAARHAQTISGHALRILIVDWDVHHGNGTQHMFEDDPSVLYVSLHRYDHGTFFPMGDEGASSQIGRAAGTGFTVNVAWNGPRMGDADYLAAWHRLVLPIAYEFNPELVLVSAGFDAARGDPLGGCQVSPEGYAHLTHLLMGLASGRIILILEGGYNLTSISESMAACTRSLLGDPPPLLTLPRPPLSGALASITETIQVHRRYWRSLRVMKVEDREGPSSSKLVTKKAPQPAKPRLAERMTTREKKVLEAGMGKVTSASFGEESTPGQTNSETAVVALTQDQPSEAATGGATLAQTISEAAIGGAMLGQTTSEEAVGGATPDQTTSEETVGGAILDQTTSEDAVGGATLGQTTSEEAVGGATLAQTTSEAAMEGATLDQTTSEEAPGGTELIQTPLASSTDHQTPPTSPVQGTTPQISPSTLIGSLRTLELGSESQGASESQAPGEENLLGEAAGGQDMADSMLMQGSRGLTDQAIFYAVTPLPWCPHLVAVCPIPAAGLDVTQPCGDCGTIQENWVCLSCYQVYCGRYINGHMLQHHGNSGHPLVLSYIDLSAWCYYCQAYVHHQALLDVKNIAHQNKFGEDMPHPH
compound,measurement,value
"CC(C)c1ccc(-c2cc3ncc(C(=O)NO)cc3o2)cc1 [Example 115, N-Hydroxy-2-[4-(1-methylethyl)phenyl]furo[3,2-b]pyridine-6-carboxamide]",IC50,23 nM
"O=C(NO)c1ccc2cc(CO)oc2c1 [Example 119, N-hydroxy-2-(hydroxymethyl)-1-benzofuran-6-carboxamide]",IC50,74 nM
"O=C(NO)c1ccc2nc(NCc3ccc(-c4ccccc4)cc3)[nH]c2c1 [Example 125, 2-(([1,1′-biphenyl]-4-ylmethyl)amino)-N-hydroxy-1H-benzo[d]imidazole-6-carboxamide]",IC50,7 nM
"O=C(NO)c1ccc2nc(N3CCN(c4ccc(F)cc4)CC3)[nH]c2c1 [Example 126, 2-(4-(4-fluorophenyl)piperazin-1-yl)-N-hydroxy-1H-benzo[d]imidazole-6-carboxamide]",IC50,85 nM
"O=C(NO)c1ccc2nc(NCc3ccccc3)[nH]c2c1 [Example 127, 2-(benzylamino)-N-hydroxy-1H-benzo[d]imidazole-6-carboxamide]",IC50,60 nM
"O=C(NO)c1ccc2nc(Nc3cccc(-c4ccccc4)c3)[nH]c2c1 [Example 136, 2-([1,1′-biphenyl]-3-ylamino)-N-hydroxy-1H-benzo[d]imidazole-6-carboxamide]",IC50,72 nM
"Cn1c(Nc2ccccc2)nc2cc(C(=O)NO)ccc21 [Example 137, N-Hydroxy-1-methyl-2-(phenylamino)-1H-benzimidazole-5-carboxamide]",IC50,39 nM
"CC(C)c1ccc(Nc2nc3cc(C(=O)NO)ccc3n2C)cc1 [Example 138, N-hydroxy-2-((4-isopropylphenyl)amino)-1-methyl-1H-benzo[d]imidazole-5-carboxamide]",IC50,22 nM
"CN(Cc1ccccc1)c1nc2cc(C(=O)NO)ccc2n1C [Example 139, 2-(benzyl(methyl)amino)-N-hydroxy-1-methyl-1H-benzo[d]imidazole-5-carboxamide]",IC50,30 nM
"Cn1c(NCCc2ccccc2)nc2cc(C(=O)NO)ccc21 [Example 140, N-hydroxy-1-methyl-2-(phenethylamino)-1H-benzo[d]imidazole-5-carboxamide]",IC50,10 nM
"Cn1c(N(Cc2ccccc2)c2ccccc2)nc2cc(C(=O)NO)ccc21 [Example 141, 2-(benzyl(phenyl)amino)-N-hydroxy-1-methyl-1H-benzo[d]imidazole-5-carboxamide]",IC50,22 nM
"Cn1c(Nc2cccc(OCc3ccccc3)c2)nc2cc(C(=O)NO)ccc21 [Example 142, 2-((3-(benzyloxy)phenyl)amino)-N-hydroxy-1-methyl-1H-benzo[d]imidazole-5-carboxamide]",IC50,1 nM
"Cn1c(N2CCC(Cc3ccccc3)CC2)nc2cc(C(=O)NO)ccc21 [Example 143, 2-(4-benzylpiperidin-1-yl)-N-hydroxy-1-methyl-1H-benzo[d]imidazole-5-carboxamide]",IC50,7 nM
"Cn1c(Nc2cccc(-c3ccccc3)c2)nc2cc(C(=O)NO)ccc21 [Example 144, 2-([1,1′-biphenyl]-3-ylamino)-N-hydroxy-1-methyl-1H-benzo[d]imidazole-5-carboxamide]",IC50,7 nM
"Cn1c(N2CCc3ccccc3C2)nc2cc(C(=O)NO)ccc21 [Example 145, 2-(3,4-dihydroisoquinolin-2(1H)-yl)-N-hydroxy-1-methyl-1H-benzo[d]imidazole-5-carboxamide]",IC50,42 nM
"O=C(NO)c1ccc2cc(-c3ccoc3)sc2c1 [Example 149, 2-furan-3-yl-N-hydroxy-1-benzothiophene-6-carboxamide]",IC50,49 nM
"COc1cc(-c2cc3ccc(C(=O)NO)cc3s2)ccc1O [Example 150, N-hydroxy-2-(4-hydroxy-3-methoxyphenyl)-1-benzothiophene-6-carboxamide]",IC50,53 nM
"CC1CCN(c2ccc(-c3nc4cc(C(=O)NO)ccc4o3)cn2)CC1 [Example 152, N-Hydroxy-2-[6-(4-methylpiperidin-1-yl)pyridin-3-yl]-1,3-benzoxazole-5-carboxamide trifluoroacetate]",IC50,30 nM
"O=C(NO)c1ccc2oc(-c3ccc(NC4CCCCCC4)nc3)nc2c1 [Example 158, 2-[6-(cycloheptylamino)pyridin-3-yl]-N-hydroxy-1,3-benzoxazole-5-carboxamide trifluoroacetate]",IC50,34 nM
"COc1ccccc1N1CCN(c2ccc(-c3nc4cc(C(=O)NO)ccc4o3)cn2)CC1 [Example 160, N-hydroxy-2-{6-[4-(2-methoxyphenyl)piperazin-1-yl]pyridin-3-yl}-1,3-benzoxazole-5-carboxamide trifluoroacetate]",IC50,21 nM
"O=C(NO)c1ccc2oc(-c3ccc(-c4ccccc4)nc3)nc2c1 [Example 161, N-Hydroxy-2-(6-phenylpyridin-3-yl)-1,3-benzoxazole-5-carboxamide trifluoroacetate]",IC50,22 nM
"CC(C)(C)c1ccc(OCc2cc3cc(C(=O)NO)ccc3o2)cc1 [Example 163, 2-[(4-tert-Butylphenoxy)methyl]-N-hydroxy-1-benzofuran-5-carboxamide]",IC50,58 nM
"O=C(NO)c1ccc2oc(-c3ccc(-c4ccccc4)cc3F)nc2c1 [Example 173, 2-(3-Fluorobiphenyl-4-yl)-N-hydroxy-1,3-benzoxazole-5-carboxamide]",IC50,20 nM
"O=C(NO)c1ccc2oc(-c3ccc(-c4cccnc4)cc3F)nc2c1 [Example 175, 2-(2-fluoro-4-pyridin-3-ylphenyl)-N-hydroxy-1,3-benzoxazole-5-carboxamide]",IC50,34 nM
"CS(=O)(=O)c1ccc(-c2ccc(-c3nc4cc(C(=O)NO)ccc4o3)cc2)cc1 [Example 180, N-hydroxy-2-[4′-(methylsulfonyl)biphenyl-4-yl]-1,3-benzoxazole-5-carboxamide]",IC50,8 nM
"Cc1noc(C)c1-c1ccc(-c2nc3cc(C(=O)NO)ccc3o2)cc1 [Example 181, 2-[4-(3,5-dimethylisoxazol-4-yl)phenyl]-N-hydroxy-1,3-benzoxazole-5-carboxamide]",IC50,31 nM
"COc1cc(-c2ccccc2F)ccc1-c1nc2cc(C(=O)NO)ccc2o1 [Example 196, 2-(2′-fluoro-3-methoxybiphenyl-4-yl)-N-hydroxy-1,3-benzoxazole-5-carboxamide]",IC50,20 nM
"C[C@@H]1CN(Cc2cccc(-c3nc4cc(C(=O)NO)ccc4o3)c2)C[C@H](C)O1 [Example 202, 2-(3-{[(cis)-2,6-dimethylmorpholin-4-yl]methyl}phenyl)-N-hydroxy-1,3-benzoxazole-5-carboxamide trifluoroacetate]",IC50,53 nM
"COCCN(C)Cc1cccc(-c2nc3cc(C(=O)NO)ccc3o2)c1 [Example 205, N-hydroxy-2-(3-{[(2-methoxy-ethyl)(methyl)amino]methyl}phenyl)-1,3-benzoxazole-5-carboxamide trifluoroacetate]",IC50,64 nM
"C[C@@H]1CN(Cc2ccc(-c3nc4cc(C(=O)NO)ccc4o3)cc2)C[C@H](C)O1 [Example 207, 2-(4-{[(cis)-2,6-dimethylmorpholin-4-yl]methyl}phenyl)-N-hydroxy-1,3-benzoxazole-5-carboxamide trifluoroacetate]",IC50,73 nM
"O=C(NO)c1ccc2oc(-c3ccc(CN4CCN(c5ccncc5)CC4)cc3)nc2c1 [Example 209, N-hydroxy-2-{4-[(4-pyridin-4-ylpiperazin-1-yl)methyl]phenyl}-1,3-benzoxazole-5-carboxamide trifluoroacetate]",IC50,35 nM
"CC(C)c1ccc(-c2nc3cc(C(=O)NO)ccc3o2)cc1F [Example 211, 2-[3-Fluoro-4-(1-methylethyl)phenyl]-N-hydroxy-1,3-benzoxazole-5-carboxamide]",IC50,38 nM
"O=C(NO)c1ccc2oc(-c3ccc4c(c3)OCCO4)nc2c1 [Example 219, 2-(2,3-Dihydro-1,4-benzodioxin-6-yl)-N-hydroxy-1,3-benzoxazole-5-carboxamide]",IC50,44 nM
"O=C(NO)c1ccc2oc(-c3cccc(O)c3)nc2c1 [Example 220, N-hydroxy-2-(3-hydroxyphenyl)-1,3-benzoxazole-5-carboxamide]",IC50,32 nM
"Cc1[nH]c2ccccc2c1-c1nc2cc(C(=O)NO)ccc2o1 [Example 228, N-hydroxy-2-(2-methyl-1H-indol-3-yl)-1,3-benzoxazole-5-carboxamide]",IC50,27 nM
"O=C(NO)c1ccc2oc(Nc3cccc(-c4ccccc4)c3)nc2c1 [Example 230, 2-(biphenyl-3-ylamino)-N-hydroxy-1,3-benzoxazole-5-carboxamide]",IC50,7 nM
"O=C(NO)c1ccc2oc(NC3CCCCCCC3)nc2c1 [Example 232, 2-(cyclooctylamino)-N-hydroxy-1,3-benzoxazole-5-carboxamide]",IC50,51 nM
"O=C(NO)c1ccc2oc(NCc3ccc(-c4ccccc4)cc3)nc2c1 [Example 234, 2-[(biphenyl-4-ylmethyl)amino]-N-hydroxy-1,3-benzoxazole-5-carboxamide]",IC50,4 nM
"O=C(NO)c1ccc2oc(N(Cc3ccccc3)c3ccccc3)nc2c1 [Example 241, 2-[benzyl(phenyl)amino]-N-hydroxy-1,3-benzoxazole-5-carboxamide]",IC50,27 nM
"COc1ccc(CN(CCN(C)C)c2nc3cc(C(=O)NO)ccc3o2)cc1OC [Example 244, 2-{(3,4-dimethoxybenzyl)[2-(dimethylamino)ethyl]amino}-N-hydroxy-1,3-benzoxazole-5-carboxamide trifluoroacetate]",IC50,63 nM
"O=C(NO)c1ccc2oc(NC3(c4cccc(F)c4)CCCCC3)nc2c1 [Example 262, 2-{[1-(3-fluorophenyl)cyclohexyl]amino}-N-hydroxy-1,3-benzoxazole-5-carboxamide]",IC50,9 nM
